Test results published in PubChem BioAssay (NCI).
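How tested: cells in 96-well plates exposed to compound for 48 hours at five concentrations. GI50 = concentration required for 50% inhibition of growth. TGI: total growth inhibition.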

Experiments:
Assay in all cases: growth of human tumour cells (NCI), 48 h
A549 NSCLC = tested on: A549 NSCLC
MDA-MB-435 = tested on: MDA-MB-435
HL-60(TB) leukemia = tested on: HL-60(TB) leukemia
UO-31 renal = tested on: UO-31 renal
RPMI-8226 leukemia = tested on: RPMI-8226 leukemia
NCI-H460 lung = tested on: NCI-H460 lung
SK-OV-3 ovarian = tested on: SK-OV-3 ovarian
COLO 205 colon = tested on: COLO 205 colon
EKVX NSCLC = tested on: EKVX NSCLC
OVCAR-4 ovarian = tested on: OVCAR-4 ovarian
SNB-19 CNS = tested on: SNB-19 CNS
HT29 colon = tested on: HT29 colon
HCT-116 colon = tested on: HCT-116 colon
NCI-H23 lung = tested on: NCI-H23 lung
786-0 renal = tested on: 786-0 renal
OVCAR-8 ovarian = tested on: OVCAR-8 ovarian
MOLT-4 leukemia = tested on: MOLT-4 leukemia
SK-MEL-28 melanoma = tested on: SK-MEL-28 melanoma
CAKI-1 renal = tested on: CAKI-1 renal
SW-620 colon = tested on: SW-620 colon
U251 CNS = tested on: U251 CNS
SK-MEL-2 melanoma = tested on: SK-MEL-2 melanoma
NCI-H226 lung = tested on: NCI-H226 lung
SF-539 CNS = tested on: SF-539 CNS
NCI/ADR-RES ovarian = tested on: NCI/ADR-RES ovarian
HOP-92 NSCLC = tested on: HOP-92 NSCLC
K-562 leukemia = tested on: K-562 leukemia
DU-145 prostate = tested on: DU-145 prostate
BT-549 breast = tested on: BT-549 breast
RXF 393 renal = tested on: RXF 393 renal
TK-10 renal = tested on: TK-10 renal
IGROV1 ovarian = tested on: IGROV1 ovarian
SNB-75 CNS = tested on: SNB-75 CNS
UACC-62 melanoma = tested on: UACC-62 melanoma
PC-3 prostate = tested on: PC-3 prostate
MDA-MB-231 breast = tested on: MDA-MB-231 breast
M14 melanoma = tested on: M14 melanoma
MALME-3M melanoma = tested on: MALME-3M melanoma
NCI-H522 lung = tested on: NCI-H522 lung
T-47D breast = tested on: T-47D breast
LOX IMVI melanoma = tested on: LOX IMVI melanoma
ACHN renal = tested on: ACHN renal
HCC-2998 colon = tested on: HCC-2998 colon
HS 578T breast = tested on: HS 578T breast
SK-MEL-5 melanoma = tested on: SK-MEL-5 melanoma
A498 renal = tested on: A498 renal
MCF7 breast = tested on: MCF7 breast
UACC-257 melanoma = tested on: UACC-257 melanoma
HCT-15 colon = tested on: HCT-15 colon
KM12 colon = tested on: KM12 colon
SF-295 CNS = tested on: SF-295 CNS
CCRF-CEM leukemia = tested on: CCRF-CEM leukemia
SF-268 CNS = tested on: SF-268 CNS
HOP-62 NSCLC = tested on: HOP-62 NSCLC
OVCAR-5 ovarian = tested on: OVCAR-5 ovarian
OVCAR-3 ovarian = tested on: OVCAR-3 ovarian
SN12C renal = tested on: SN12C renal

In the case of `CC1=NOC(C)(O)/C1=N/O` (centres undefined), the TGI (A549 NSCLC) is reported as > 100 µM, the TGI (MDA-MB-435) is reported as > 100 µM and the TGI (HL-60(TB) leukemia) is reported as > 100 µM. The TGI (UO-31 renal) was > 100 µM, the TGI (RPMI-8226 leukemia) was > 100 µM and the TGI (NCI-H460 lung) was > 100 µM. For the same compound, the TGI (SK-OV-3 ovarian) was > 100 µM, the TGI (COLO 205 colon) was > 100 µM and the TGI (EKVX NSCLC) was > 100 µM. The TGI (OVCAR-4 ovarian) was > 100 µM, the TGI (SNB-19 CNS) was > 100 µM and the TGI (HT29 colon) was > 100 µM. For the same compound, the TGI (HCT-116 colon) was > 100 µM, the TGI (NCI-H23 lung) was > 100 µM and the TGI (786-0 renal) was > 100 µM. The TGI (OVCAR-8 ovarian) was > 100 µM, the TGI (MOLT-4 leukemia) was > 100 µM and the TGI (SK-MEL-28 melanoma) was > 100 µM. For the same compound, the TGI (CAKI-1 renal) was > 100 µM, the TGI (SW-620 colon) was > 100 µM and the TGI (U251 CNS) was > 100 µM. For the same compound, the TGI (SK-MEL-2 melanoma) was > 100 µM, the TGI (NCI-H226 lung) was > 100 µM and the TGI (SF-539 CNS) was > 100 µM. For the same compound, the TGI (NCI/ADR-RES ovarian) was > 100 µM, the TGI (HOP-92 NSCLC) was > 100 µM and the TGI (K-562 leukemia) was > 100 µM. The TGI (DU-145 prostate) was > 100 µM, the TGI (BT-549 breast) was > 100 µM and the TGI (RXF 393 renal) was > 100 µM. For the same compound, the TGI (TK-10 renal) was > 100 µM, the TGI (IGROV1 ovarian) was > 100 µM and the TGI (SNB-75 CNS) was > 100 µM. For the same compound, the TGI (UACC-62 melanoma) was > 100 µM, the TGI (PC-3 prostate) was > 100 µM and the TGI (MDA-MB-231 breast) was > 100 µM. For the same compound, the TGI (M14 melanoma) was > 100 µM, the TGI (MALME-3M melanoma) was > 100 µM and the TGI (NCI-H522 lung) was > 100 µM. For the same compound, the TGI (T-47D breast) was > 100 µM, the TGI (LOX IMVI melanoma) was > 100 µM and the TGI (ACHN renal) was > 100 µM. The TGI (HCC-2998 colon) was > 100 µM, the TGI (HS 578T breast) was > 100 µM and the TGI (SK-MEL-5 melanoma) was > 100 µM. The TGI (A498 renal) was > 100 µM, the TGI (MCF7 breast) was > 100 µM and the TGI (UACC-257 melanoma) was > 100 µM. The TGI (HCT-15 colon) was > 100 µM, the TGI (KM12 colon) was > 100 µM and the TGI (SF-295 CNS) was > 100 µM. For the same compound, the TGI (CCRF-CEM leukemia) was > 100 µM, the TGI (SF-268 CNS) was > 100 µM and the TGI (HOP-62 NSCLC) was > 100 µM. The TGI (OVCAR-5 ovarian) was > 100 µM, the TGI (OVCAR-3 ovarian) was > 100 µM and the TGI (SN12C renal) was > 100 µM.
`COc1cc(/C=C\c2cc(/C=C\c3ccc(O)c(OC)c3)n(C(=O)COc3ccc(Cl)cc3Cl)n2)ccc1O` was tested, and the GI50 (A549 NSCLC) was 1.31 µM, the TGI (A549 NSCLC) was 10.3 µM and the GI50 (MDA-MB-435) was 0.243 µM. The TGI (MDA-MB-435) was 14.7 µM, the GI50 (HL-60(TB) leukemia) was 0.314 µM and the TGI (HL-60(TB) leukemia) was 1.31 µM. For the same compound, the GI50 (UO-31 renal) was 0.362 µM, the TGI (UO-31 renal) was 2.3 µM and the GI50 (RPMI-8226 leukemia) was 0.569 µM. The TGI (RPMI-8226 leukemia) was 7.62 µM, the GI50 (NCI-H460 lung) was 0.517 µM and the TGI (NCI-H460 lung) was 14.2 µM. For the same compound, the GI50 (SK-OV-3 ovarian) was 1.26 µM, the TGI (SK-OV-3 ovarian) was 3.43 µM and the GI50 (COLO 205 colon) was 1.98 µM. The TGI (COLO 205 colon) was 4.01 µM, the GI50 (EKVX NSCLC) was 1.98 µM and the TGI (EKVX NSCLC) was 9.72 µM. The GI50 (OVCAR-4 ovarian) was 1.29 µM, the TGI (OVCAR-4 ovarian) was > 100 µM and the GI50 (SNB-19 CNS) was 1.41 µM. For the same compound, the TGI (SNB-19 CNS) was 11.7 µM, the GI50 (HT29 colon) was 2.75 µM and the TGI (HT29 colon) was 7.03 µM. The GI50 (HCT-116 colon) was 0.416 µM, the TGI (HCT-116 colon) was 6.21 µM and the GI50 (NCI-H23 lung) was 1.06 µM. For the same compound, the TGI (NCI-H23 lung) was 5 µM, the GI50 (786-0 renal) was 0.634 µM and the TGI (786-0 renal) was 2.52 µM. It also gave a GI50 (OVCAR-8 ovarian) of 1.59 µM, a TGI (OVCAR-8 ovarian) of 6.09 µM and a GI50 (MOLT-4 leukemia) of 0.425 µM. The TGI (MOLT-4 leukemia) was 3.46 µM, the GI50 (SK-MEL-28 melanoma) was 1.19 µM and the TGI (SK-MEL-28 melanoma) was 7.32 µM. The GI50 (CAKI-1 renal) was 0.818 µM, the TGI (CAKI-1 renal) was > 100 µM and the GI50 (SW-620 colon) was 0.659 µM. The TGI (SW-620 colon) was > 100 µM, the GI50 (U251 CNS) was 0.916 µM and the TGI (U251 CNS) was 6.15 µM. For the same compound, the GI50 (SK-MEL-2 melanoma) was 0.302 µM, the TGI (SK-MEL-2 melanoma) was 1.54 µM and the GI50 (NCI-H226 lung) was 2.98 µM. The TGI (NCI-H226 lung) was 10.2 µM, the GI50 (SF-539 CNS) was 0.38 µM and the TGI (SF-539 CNS) was 2.85 µM. It also gave a GI50 (NCI/ADR-RES ovarian) of 0.538 µM, a TGI (NCI/ADR-RES ovarian) of 21.1 µM and a GI50 (HOP-92 NSCLC) of 2.93 µM. For the same compound, the TGI (HOP-92 NSCLC) was 7.94 µM, the GI50 (K-562 leukemia) was 0.381 µM and the TGI (K-562 leukemia) was > 100 µM. The GI50 (DU-145 prostate) was 0.833 µM, the TGI (DU-145 prostate) was 9.94 µM and the GI50 (BT-549 breast) was 0.526 µM. For the same compound, the TGI (BT-549 breast) was 3.34 µM, the GI50 (RXF 393 renal) was 1.27 µM and the TGI (RXF 393 renal) was 3.33 µM. For the same compound, the GI50 (TK-10 renal) was 1.79 µM, the TGI (TK-10 renal) was 8.06 µM and the GI50 (IGROV1 ovarian) was 1.99 µM. For the same compound, the TGI (IGROV1 ovarian) was 10.3 µM, the GI50 (SNB-75 CNS) was 0.994 µM and the TGI (SNB-75 CNS) was 7.81 µM. For the same compound, the GI50 (UACC-62 melanoma) was 0.552 µM, the TGI (UACC-62 melanoma) was 12 µM and the GI50 (PC-3 prostate) was 1.8 µM. It also gave a TGI (PC-3 prostate) of 8.02 µM, a GI50 (MDA-MB-231 breast) of 2.38 µM and a TGI (MDA-MB-231 breast) of 23.4 µM. For the same compound, the GI50 (M14 melanoma) was 0.349 µM, the TGI (M14 melanoma) was 4.83 µM and the GI50 (MALME-3M melanoma) was 0.488 µM. The TGI (MALME-3M melanoma) was 5.03 µM, the GI50 (NCI-H522 lung) was 0.196 µM and the TGI (NCI-H522 lung) was 0.837 µM. For the same compound, the GI50 (T-47D breast) was 1.25 µM, the TGI (T-47D breast) was 3.99 µM and the GI50 (LOX IMVI melanoma) was 0.497 µM. For the same compound, the TGI (LOX IMVI melanoma) was 3.29 µM, the GI50 (ACHN renal) was 0.476 µM and the TGI (ACHN renal) was 9.13 µM. It also gave a GI50 (HCC-2998 colon) of 2.89 µM, a TGI (HCC-2998 colon) of 12.4 µM and a GI50 (HS 578T breast) of 1.2 µM. For the same compound, the TGI (HS 578T breast) was > 100 µM, the GI50 (SK-MEL-5 melanoma) was 0.661 µM and the TGI (SK-MEL-5 melanoma) was 3.03 µM. It also gave a GI50 (A498 renal) of 3.82 µM, a TGI (A498 renal) of 12 µM and a GI50 (MCF7 breast) of 0.336 µM. For the same compound, the TGI (MCF7 breast) was 2.33 µM, the GI50 (UACC-257 melanoma) was 2.19 µM and the TGI (UACC-257 melanoma) was 7.13 µM. The GI50 (HCT-15 colon) was 0.342 µM, the TGI (HCT-15 colon) was 3.61 µM and the GI50 (KM12 colon) was 0.506 µM. It also gave a TGI (KM12 colon) of 26.2 µM, a GI50 (SF-295 CNS) of 3.07 µM and a TGI (SF-295 CNS) of 8.87 µM. For the same compound, the GI50 (CCRF-CEM leukemia) was 0.432 µM, the TGI (CCRF-CEM leukemia) was > 100 µM and the GI50 (SF-268 CNS) was 0.621 µM. The TGI (SF-268 CNS) was 9.84 µM, the GI50 (HOP-62 NSCLC) was 0.519 µM and the TGI (HOP-62 NSCLC) was 3.16 µM. For the same compound, the GI50 (OVCAR-5 ovarian) was 2.71 µM, the TGI (OVCAR-5 ovarian) was 8.32 µM and the GI50 (SN12C renal) was 0.935 µM. The TGI (SN12C renal) was 65.8 µM.
